ChEMBL document CHEMBL4837183, “Antiproliferative Bufadienolides from the Bulbs of Drimia altissima” (2021)

What was measured:
Format in all cases: functional
HCT-116 = assay: Growth inhibition of human HCT-116 cells measured after 48 hrs by SRB assay
HL-60 = assay: Growth inhibition of human HL-60 cells measured after 48 hrs by SRB assay
M14 = assay: Growth inhibition of human M14 cells measured after 48 hrs by SRB assay
BT-549 = assay: Growth inhibition of human BT-549 cells measured after 48 hrs by SRB assay
OVCAR-5 = assay: Growth inhibition of human OVCAR-5 cells measured after 48 hrs by SRB assay
Hs-578T = assay: Growth inhibition of human Hs-578T cells measured after 48 hrs by SRB assay
HT-29 = assay: Growth inhibition of human HT-29 cells measured after 48 hrs by SRB assay
NCI/ADR-RES = assay: Growth inhibition of human NCI/ADR-RES cells measured after 48 hrs by SRB assay
HCC 2998 = assay: Growth inhibition of human HCC 2998 cells measured after 48 hrs by SRB assay
K562 = assay: Growth inhibition of human K562 cells measured after 48 hrs by SRB assay
NCI-H460 = assay: Growth inhibition of human NCI-H460 cells measured after 48 hrs by SRB assay
DU-145 = assay: Growth inhibition of human DU-145 cells measured after 48 hrs by SRB assay
SW-620 = assay: Growth inhibition of human SW-620 cells measured after 48 hrs by SRB assay
KM12 = assay: Growth inhibition of human KM12 cells measured after 48 hrs by SRB assay
UACC-62 = assay: Growth inhibition of human UACC-62 cells measured after 48 hrs by SRB assay
MDA-MB-435 = assay: Growth inhibition of human MDA-MB-435 cells measured after 48 hrs by SRB assay
SK-OV-3 = assay: Growth inhibition of human SK-OV-3 cells measured after 48 hrs by SRB assay
T47D = assay: Growth inhibition of human T47D cells measured after 48 hrs by SRB assay
A549 = assay: Growth inhibition of human A549 cells measured after 48 hrs by SRB assay
TK-10 = assay: Growth inhibition of human TK-10 cells measured after 48 hrs by SRB assay
HOP-62 = assay: Growth inhibition of human HOP-62 cells measured after 48 hrs by SRB assay
ACHN = assay: Growth inhibition of human ACHN cells measured after 48 hrs by SRB assay
IGROV-1 = assay: Growth inhibition of human IGROV-1 cells measured after 48 hrs by SRB assay
NCI-H322M = assay: Growth inhibition of human NCI-H322M cells measured after 48 hrs by SRB assay
SNB-75 = assay: Growth inhibition of human SNB-75 cells measured after 48 hrs by SRB assay
SF-268 = assay: Growth inhibition of human SF-268 cells measured after 48 hrs by SRB assay
CCRF-CEM = assay: Growth inhibition of human CCRF-CEM cells measured after 48 hrs by SRB assay
MDA-MB-468 = assay: Growth inhibition of human MDA-MB-468 cells measured after 48 hrs by SRB assay
UO-31 = assay: Growth inhibition of human UO-31 cells measured after 48 hrs by SRB assay
MCF7 = assay: Growth inhibition of human MCF7 cells measured after 48 hrs by SRB assay
OVCAR-3 = assay: Growth inhibition of human OVCAR-3 cells measured after 48 hrs by SRB assay
SK-MEL-5 = assay: Growth inhibition of human SK-MEL-5 cells measured after 48 hrs by SRB assay
786-0 = assay: Growth inhibition of human 786-0 cells measured after 48 hrs by SRB assay
NCI-H23 = assay: Growth inhibition of human NCI-H23 cells measured after 48 hrs by SRB assay
OVCAR-8 = assay: Growth inhibition of human OVCAR-8 cells measured after 48 hrs by SRB assay
MDA-MB-231 = assay: Growth inhibition of human MDA-MB-231 cells measured after 48 hrs by SRB assay
HCT-15 = assay: Growth inhibition of human HCT-15 cells measured after 48 hrs by SRB assay
SNB-19 = assay: Growth inhibition of human SNB-19 cells measured after 48 hrs by SRB assay
SN12C = assay: Growth inhibition of human SN12C cells measured after 48 hrs by SRB assay
PC-3 = assay: Growth inhibition of human PC-3 cells measured after 48 hrs by SRB assay
MOLT-4 = assay: Growth inhibition of human MOLT-4 cells measured after 48 hrs by SRB assay
HOP-92 = assay: Growth inhibition of human HOP-92 cells measured after 48 hrs by SRB assay
SK-MEL-2 = assay: Growth inhibition of human SK-MEL-2 cells measured after 48 hrs by SRB assay
NCI-H226 = assay: Growth inhibition of human NCI-H226 cells measured after 48 hrs by SRB assay
SF-295 = assay: Growth inhibition of human SF-295 cells measured after 48 hrs by SRB assay
SR = assay: Growth inhibition of human SR cells measured after 48 hrs by SRB assay
U-251 = assay: Growth inhibition of human U-251 cells measured after 48 hrs by SRB assay
SK-MEL-28 = assay: Growth inhibition of human SK-MEL-28 cells measured after 48 hrs by SRB assay
LOX IMVI = assay: Growth inhibition of human LOX IMVI cells measured after 48 hrs by SRB assay
UACC-257 = assay: Growth inhibition of human UACC-257 cells measured after 48 hrs by SRB assay
Malme-3M = assay: Growth inhibition of human Malme-3M cells measured after 48 hrs by SRB assay
CAKI-1 = assay: Growth inhibition of human CAKI-1 cells measured after 48 hrs by SRB assay
SF-539 = assay: Growth inhibition of human SF-539 cells measured after 48 hrs by SRB assay
RXF 393 = assay: Growth inhibition of human RXF 393 cells measured after 48 hrs by SRB assay
NCI-H522 = assay: Growth inhibition of human NCI-H522 cells measured after 48 hrs by SRB assay
COLO 205 = assay: Growth inhibition of human COLO 205 cells measured after 48 hrs by SRB assay
A498 = assay: Growth inhibition of human A498 cells measured after 48 hrs by SRB assay

C[C@]12CC[C@H](O[C@@H]3O[C@H](CO)[C@@H](O)[C@H](O)[C@H]3O)C=C1CC[C@@H]1[C@@H]2[C@@H](O)C[C@]2(C)[C@@H](c3ccc(=O)oc3)CC[C@]12O
GI50 (HCT-116): 0.015 µM
GI50 (HL-60): 0.05 µM
GI50 (M14): 0.083 µM
GI50 (BT-549): 0.027 µM
GI50 (OVCAR-5): 0.06 µM
GI50 (Hs-578T): 0.025 µM
GI50 (HT-29): 0.081 µM
GI50 (NCI/ADR-RES): 0.033 µM
GI50 (HCC 2998): 0.136 µM
GI50 (K562): 0.08 µM
GI50 (NCI-H460): 0.013 µM
GI50 (DU-145): 0.031 µM
GI50 (SW-620): 0.051 µM
GI50 (KM12): 0.091 µM
GI50 (UACC-62): 0.007 µM
GI50 (MDA-MB-435): 0.073 µM
GI50 (SK-OV-3): 0.074 µM
GI50 (T47D): 0.078 µM
GI50 (A549): 0.015 µM
GI50 (TK-10): 0.031 µM
GI50 (HOP-62): 0.026 µM
GI50 (ACHN): 0.01 µM
GI50 (IGROV-1): 0.064 µM
GI50 (NCI-H322M): 0.03 µM
GI50 (SNB-75): 0.082 µM
GI50 (SF-268): 0.018 µM
GI50 (CCRF-CEM): 0.016 µM
GI50 (MDA-MB-468): 0.109 µM
GI50 (UO-31): 0.034 µM
GI50 (MCF7): 0.042 µM
GI50 (OVCAR-3): 0.036 µM
GI50 (SK-MEL-5): 0.055 µM
GI50 (786-0): 0.038 µM
GI50 (NCI-H23): 0.027 µM
GI50 (OVCAR-8): 0.065 µM
GI50 (MDA-MB-231): 0.193 µM
GI50 (HCT-15): 0.053 µM
GI50 (SNB-19): 0.108 µM
GI50 (SN12C): 0.015 µM
GI50 (PC-3): 0.046 µM
GI50 (MOLT-4): 0.011 µM
GI50 (HOP-92): 0.066 µM
GI50 (SK-MEL-2): 0.059 µM
GI50 (NCI-H226): 0.047 µM
GI50 (SF-295): 0.061 µM
GI50 (SR): 0.055 µM
GI50 (U-251): 0.079 µM
GI50 (SK-MEL-28): 0.107 µM
GI50 (LOX IMVI): 0.064 µM
GI50 (UACC-257): 0.093 µM
GI50 (Malme-3M): 0.063 µM
GI50 (CAKI-1): 0.041 µM
GI50 (SF-539): 0.031 µM
GI50 (RXF 393): 0.02 µM
GI50 (NCI-H522): 0.009 µM
GI50 (COLO 205): 0.102 µM
GI50 (A498): 0.038 µM

CC(=O)OC[C@H]1O[C@@H](O[C@@H]2C=C3CC[C@@H]4[C@H]([C@@H](O)C[C@]5(C)[C@@H](c6ccc(=O)oc6)CC[C@]45O)[C@@]3(C)CC2)[C@H](OC(C)=O)[C@@H](OC(C)=O)[C@@H]1OC(C)=O
GI50 (HCT-116): 0.075 µM
GI50 (HL-60): 0.14 µM
GI50 (M14): 0.416 µM
GI50 (BT-549): 0.093 µM
GI50 (OVCAR-5): 0.381 µM
GI50 (Hs-578T): 0.091 µM
GI50 (HT-29): 0.321 µM
GI50 (NCI/ADR-RES): 0.283 µM
GI50 (HCC 2998): 0.677 µM
GI50 (K562): 0.386 µM
GI50 (NCI-H460): 0.065 µM
GI50 (DU-145): 0.109 µM
GI50 (SW-620): 0.114 µM
GI50 (KM12): 0.597 µM
GI50 (UACC-62): 0.155 µM
GI50 (MDA-MB-435): 0.29 µM
GI50 (SK-OV-3): 0.322 µM
GI50 (T47D): 0.338 µM
GI50 (A549): 0.075 µM
GI50 (TK-10): 0.128 µM
GI50 (HOP-62): 0.105 µM
GI50 (ACHN): 0.056 µM
GI50 (IGROV-1): 0.111 µM
GI50 (NCI-H322M): 0.114 µM
GI50 (SNB-75): 0.302 µM
GI50 (SF-268): 0.109 µM
GI50 (CCRF-CEM): 0.11 µM
GI50 (MDA-MB-468): 0.642 µM
GI50 (UO-31): 0.092 µM
GI50 (MCF7): 0.103 µM
GI50 (OVCAR-3): 0.092 µM
GI50 (SK-MEL-5): 0.095 µM
GI50 (786-0): 0.102 µM
GI50 (NCI-H23): 0.181 µM
GI50 (OVCAR-8): 0.246 µM
GI50 (MDA-MB-231): 0.812 µM
GI50 (HCT-15): 0.225 µM
GI50 (SNB-19): 0.421 µM
GI50 (SN12C): 0.065 µM
GI50 (PC-3): 0.247 µM
GI50 (MOLT-4): 0.088 µM
GI50 (HOP-92): 0.286 µM
GI50 (SK-MEL-2): 0.362 µM
GI50 (NCI-H226): 0.264 µM
GI50 (SF-295): 0.129 µM
GI50 (SR): 0.285 µM
GI50 (U-251): 0.295 µM
GI50 (SK-MEL-28): 0.273 µM
GI50 (LOX IMVI): 0.314 µM
GI50 (UACC-257): 0.376 µM
GI50 (Malme-3M): 0.105 µM
GI50 (CAKI-1): 0.098 µM
GI50 (SF-539): 0.077 µM
GI50 (RXF 393): 0.041 µM
GI50 (NCI-H522): 0.07 µM
GI50 (COLO 205): 0.629 µM
GI50 (A498): 0.064 µM
